# From ChEMBL document CHEMBL5154747, “Discovery of new carbonic anhydrase IX inhibitors as anticancer agents by toning the hydrophobic and hydrophilic rims of the active site to encounter the dual-tail approach” (Eur J Med Chem, 2022)
# How the values were obtained:
# [1] = system: MOLT-4; experiment: Anticancer activity against human MOLT-4 cells assessed as cell growth inhibition at 10 uM incubated for 48 hrs by SRB assay relative to control; format: functional; settings: read-out: GI
# [2] = system: Malme-3M; experiment: Anticancer activity against human Malme-3M cells assessed as cell growth inhibition at 10 uM incubated for 48 hrs by SRB assay relative to control; format: functional; settings: read-out: GI
# [3] = target: Carbonic anhydrase 9 (Homo sapiens, UniProt Q16790); experiment: Inhibition of recombinant human CA 9 preincubated for 15 mins by phenol red dye based stopped flow CO2 hydration assay
# [4] = system: SN12C; experiment: Anticancer activity against human SN12C cells assessed as cell growth inhibition at 10 uM incubated for 48 hrs by SRB assay relative to control; format: functional; settings: read-out: GI
# [5] = system: TK-10; experiment: Anticancer activity against human TK-10 cells assessed as cell growth inhibition at 10 uM incubated for 48 hrs by SRB assay relative to control; format: functional; settings: read-out: GI
# [6] = system: A498; experiment: Anticancer activity against human A498 cells assessed as cell growth inhibition at 10 uM incubated for 48 hrs by SRB assay relative to control; format: functional; settings: read-out: GI
# [7] = system: HOP-62; experiment: Anticancer activity against human HOP-62 cells assessed as cell growth inhibition at 10 uM incubated for 48 hrs by SRB assay relative to control; format: functional; settings: read-out: GI
# [8] = system: OVCAR-3; experiment: Anticancer activity against human OVCAR-3 cells assessed as cell growth inhibition at 10 uM incubated for 48 hrs by SRB assay relative to control; format: functional; settings: read-out: GI
# [9] = system: U-251; experiment: Anticancer activity against human U-251 cells assessed as cell growth inhibition at 10 uM incubated for 48 hrs by SRB assay relative to control; format: functional; settings: read-out: GI
# [10] = system: UO-31; experiment: Anticancer activity against human UO-31 cells assessed as cell growth inhibition at 10 uM incubated for 48 hrs by SRB assay relative to control; format: functional; settings: read-out: GI
# [11] = system: SNB-75; experiment: Anticancer activity against human SNB-75 cells assessed as cell growth inhibition at 10 uM incubated for 48 hrs by SRB assay relative to control; format: functional; settings: read-out: GI
# [12] = system: MCF7; experiment: Anticancer activity against human MCF7 cells assessed as cell growth inhibition at 10 uM incubated for 48 hrs by SRB assay relative to control; format: functional; settings: read-out: GI
# [13] = system: RPMI-8226; experiment: Anticancer activity against human RPMI-8226 cells assessed as cell growth inhibition at 10 uM incubated for 48 hrs by SRB assay relative to control; format: functional; settings: read-out: GI
# [14] = system: SNB-19; experiment: Anticancer activity against human SNB-19 cells assessed as cell growth inhibition at 10 uM incubated for 48 hrs by SRB assay relative to control; format: functional; settings: read-out: GI
# [15] = system: NCI-H522; experiment: Anticancer activity against human NCI-H522 cells assessed as cell growth inhibition at 10 uM incubated for 48 hrs by SRB assay relative to control; format: functional; settings: read-out: GI
# [16] = system: OVCAR-5; experiment: Anticancer activity against human OVCAR-5 cells assessed as cell growth inhibition at 10 uM incubated for 48 hrs by SRB assay relative to control; format: functional; settings: read-out: GI
# [17] = system: RXF 393; experiment: Anticancer activity against human RXF 393 cells assessed as cell growth inhibition at 10 uM incubated for 48 hrs by SRB assay relative to control; format: functional; settings: read-out: GI
# [18] = system: KM12; experiment: Anticancer activity against human KM12 cells assessed as cell growth inhibition at 10 uM incubated for 48 hrs by SRB assay relative to control; format: functional; settings: read-out: GI
# [19] = system: OVCAR-4; experiment: Anticancer activity against human OVCAR-4 cells assessed as cell growth inhibition at 10 uM incubated for 48 hrs by SRB assay relative to control; format: functional; settings: read-out: GI
# [20] = system: PC-3; experiment: Anticancer activity against human PC-3 cells assessed as cell growth inhibition at 10 uM incubated for 48 hrs by SRB assay relative to control; format: functional; settings: read-out: GI
# [21] = system: NCI-H460; experiment: Anticancer activity against human NCI-H460 cells assessed as cell growth inhibition at 10 uM incubated for 48 hrs by SRB assay relative to control; format: functional; settings: read-out: GI
# [22] = system: HT-29; experiment: Anticancer activity against human HT-29 cells assessed as cell growth inhibition at 10 uM incubated for 48 hrs by SRB assay relative to control; format: functional; settings: read-out: GI
# [23] = system: EKVX; experiment: Anticancer activity against human EKVX cells assessed as cell growth inhibition at 10 uM incubated for 48 hrs by SRB assay relative to control; format: functional; settings: read-out: GI
# [24] = system: SF-539; experiment: Anticancer activity against human SF-539 cells assessed as cell growth inhibition at 10 uM incubated for 48 hrs by SRB assay relative to control; format: functional; settings: read-out: GI
# [25] = system: 786-0; experiment: Anticancer activity against human 786-0 cells assessed as cell growth inhibition at 10 uM incubated for 48 hrs by SRB assay relative to control; format: functional; settings: read-out: GI
# [26] = system: SF-268; experiment: Anticancer activity against human SF-268 cells assessed as cell growth inhibition at 10 uM incubated for 48 hrs by SRB assay relative to control; format: functional; settings: read-out: GI
# [27] = system: MDA-MB-231; experiment: Anticancer activity against human MDA-MB-231 cells assessed as cell growth inhibition at 10 uM incubated for 48 hrs by SRB assay relative to control; format: functional; settings: read-out: GI
# [28] = system: HOP-92; experiment: Anticancer activity against human HOP-92 cells assessed as cell growth inhibition at 10 uM incubated for 48 hrs by SRB assay relative to control; format: functional; settings: read-out: GI
# [29] = system: MDA-MB-468; experiment: Anticancer activity against human MDA-MB-468 cells assessed as cell growth inhibition at 10 uM incubated for 48 hrs by SRB assay relative to control; format: functional; settings: read-out: GI
# [30] = system: NCI-H23; experiment: Anticancer activity against human NCI-H23 cells assessed as cell growth inhibition at 10 uM incubated for 48 hrs by SRB assay relative to control; format: functional; settings: read-out: GI
# [31] = system: K562; experiment: Anticancer activity against human K562 cells assessed as cell growth inhibition at 10 uM incubated for 48 hrs by SRB assay relative to control; format: functional; settings: read-out: GI
# [32] = system: SK-MEL-2; experiment: Anticancer activity against human SK-MEL-2 cells assessed as cell growth inhibition at 10 uM incubated for 48 hrs by SRB assay relative to control; format: functional; settings: read-out: GI
# [33] = system: Hs-578T; experiment: Anticancer activity against human Hs-578T cells assessed as cell growth inhibition at 10 uM incubated for 48 hrs by SRB assay relative to control; format: functional; settings: read-out: GI
# [34] = system: LOX IMVI; experiment: Anticancer activity against human LOX IMVI cells assessed as cell growth inhibition at 10 uM incubated for 48 hrs by SRB assay relative to control; format: functional; settings: read-out: GI
# [35] = system: SK-MEL-5; experiment: Anticancer activity against human SK-MEL-5 cells assessed as cell growth inhibition at 10 uM incubated for 48 hrs by SRB assay relative to control; format: functional; settings: read-out: GI
# [36] = system: T47D; experiment: Anticancer activity against human T47D cells assessed as cell growth inhibition at 10 uM incubated for 48 hrs by SRB assay relative to control; format: functional; settings: read-out: GI
# [37] = system: COLO 205; experiment: Anticancer activity against human COLO 205 cells assessed as cell growth inhibition at 10 uM incubated for 48 hrs by SRB assay relative to control; format: functional; settings: read-out: GI
# [38] = system: OVCAR-8; experiment: Anticancer activity against human OVCAR-8 cells assessed as cell growth inhibition at 10 uM incubated for 48 hrs by SRB assay relative to control; format: functional; settings: read-out: GI
# [39] = system: HCT-15; experiment: Anticancer activity against human HCT-15 cells assessed as cell growth inhibition at 10 uM incubated for 48 hrs by SRB assay relative to control; format: functional; settings: read-out: GI
# [40] = system: A549; experiment: Anticancer activity against human A549 cells assessed as cell growth inhibition at 10 uM incubated for 48 hrs by SRB assay relative to control; format: functional; settings: read-out: GI
Structure (SMILES),inhibition of growth at 10 µM [1] [%],inhibition of growth at 10 µM [2] [%],Ki [3] [nM],inhibition of growth at 10 µM [4] [%],inhibition of growth at 10 µM [5] [%],inhibition of growth at 10 µM [6] [%],inhibition of growth at 10 µM [7] [%],inhibition of growth at 10 µM [8] [%],inhibition of growth at 10 µM [9] [%],inhibition of growth at 10 µM [10] [%],inhibition of growth at 10 µM [11] [%],inhibition of growth at 10 µM [12] [%],inhibition of growth at 10 µM [13] [%],inhibition of growth at 10 µM [14] [%],inhibition of growth at 10 µM [15] [%],inhibition of growth at 10 µM [16] [%],inhibition of growth at 10 µM [17] [%],inhibition of growth at 10 µM [18] [%],inhibition of growth at 10 µM [19] [%],inhibition of growth at 10 µM [20] [%],further results
COc1ccc(/C=N/Nc2nc(Nc3ccccc3)nc(Nc3ccc(S(N)(=O)=O)cc3)n2)cc1,55,18,99.4,19,20,38,19,38,33,22,18,59,52,13,17,14,77,25,33,24,inhibition of growth at 10 µM [21]: 44%; inhibition of growth at 10 µM [22]: 44%; inhibition of growth at 10 µM [23]: 11%; inhibition of growth at 10 µM [24]: 51%; inhibition of growth at 10 µM [25]: 26%; inhibition of growth at 10 µM [26]: < 10%; inhibition of growth at 10 µM [27]: 32%; inhibition of growth at 10 µM [28]: < 10%; inhibition of growth at 10 µM [29]: 23%; inhibition of growth at 10 µM [30]: 29%; inhibition of growth at 10 µM [31]: 50%; inhibition of growth at 10 µM [32]: 31%; inhibition of growth at 10 µM [33]: 41%; inhibition of growth at 10 µM [34]: 47%; inhibition of growth at 10 µM [35]: 25%; inhibition of growth at 10 µM [36]: 36%; inhibition of growth at 10 µM [37]: 23%; inhibition of growth at 10 µM [38]: 32%; inhibition of growth at 10 µM [39]: 31%; inhibition of growth at 10 µM [40]: 12%
NS(=O)(=O)c1ccc(Nc2nc(N/N=C/CCc3ccccc3)nc(Nc3ccccc3)n2)cc1,< 10,< 10,28.8,< 10,< 10,< 10,< 10,< 10,< 10,< 10,< 10,< 10,< 10,< 10,12,< 10,< 10,< 10,< 10,< 10,inhibition of growth at 10 µM [21]: < 10%; inhibition of growth at 10 µM [22]: < 10%; inhibition of growth at 10 µM [23]: < 10%; inhibition of growth at 10 µM [24]: < 10%; inhibition of growth at 10 µM [25]: < 10%; inhibition of growth at 10 µM [26]: < 10%; inhibition of growth at 10 µM [27]: < 10%; inhibition of growth at 10 µM [28]: < 10%; inhibition of growth at 10 µM [29]: 11%; inhibition of growth at 10 µM [30]: < 10%; inhibition of growth at 10 µM [31]: < 10%; inhibition of growth at 10 µM [32]: < 10%; inhibition of growth at 10 µM [33]: < 10%; inhibition of growth at 10 µM [34]: < 10%; inhibition of growth at 10 µM [35]: < 10%; inhibition of growth at 10 µM [36]: < 10%; inhibition of growth at 10 µM [37]: < 10%; inhibition of growth at 10 µM [38]: < 10%; inhibition of growth at 10 µM [39]: < 10%; inhibition of growth at 10 µM [40]: < 10%
